Here are results for 24 molecules from ChEMBL document CHEMBL4296182, “CO-ADD screening of NIH NCI Diversity Set V”.

The test system of experiment [1] is Escherichia coli. Nature of the experiment: microbe, parasite or virus in culture. As to conditions: ATCC 25922, 18 h, ASSAY_TEST Inhibition of Bacterial Growth, detection method Absorption (OD600), MEDIA CAMHB, plate type 384well, NBS, CORNING #3640.
Description: Antibacterial activity against Escherichia coli ATCC 25922 (CO-ADD:GN_001); MIC in CAMBH media using NBS plates, by OD(600)
In experiment [2] the test system is Cryptococcus neoformans.
Description: Antifungal activity against Cryptococcus neoformans H99 ATCC 208821 (CO-ADD:FG_002); MIC in YNB media using NBS plates, by Resazurin OD(600-570)
Experiment [3] concerns Candida albicans. Description: microbe, parasite or virus in culture. The note with it: ATCC 90028, ASSAY_TEST Inhibition of Fungal Growth, detection method Absorption (OD530), plate type 384well, NBS, CORNING #3640.
Description: Antifungal activity against Candida albicans ATCC 90028 (CO-ADD:FG_001); MIC in YNB media using NBS plates, by OD630
In experiment [4] the test system is Acinetobacter baumannii. Description: microbe, parasite or virus in culture. As to conditions: ATCC 19606, 18 h, ASSAY_TEST Inhibition of Bacterial Growth, detection method Absorption (OD600), MEDIA CAMHB, plate type 384well, NBS, CORNING #3640.
Description: Antibacterial activity against Acinetobacter baumannii ATCC 19606 (CO-ADD:GN_034); MIC in CAMBH media using NBS plates, by OD600
The test system of experiment [5] is Staphylococcus aureus. Description: microbe, parasite or virus in culture. As to conditions: ATCC 43300, 18 h, ASSAY_TEST Inhibition of Bacterial Growth, detection method Absorption (OD600), MEDIA CAMHB, plate type 384well, NBS, CORNING #3640.
Description: Antibacterial activity against Staphylococcus aureus MRSA ATCC 43300 (CO-ADD:GP_020); MIC in CAMBH media, using NBS plates, by OD(600)
Experiment [6] has as its system Klebsiella pneumoniae. Description: microbe, parasite or virus in culture. The note with it: ATCC 700603, 18 h, ASSAY_TEST Inhibition of Bacterial Growth, detection method Absorption (OD600), MEDIA CAMHB, plate type 384well, NBS, CORNING #3640.
Description: Antibacterial activity against Klebsiella pneumoniae MDR ATCC 70063 (CO-ADD:GN_003); MIC in CAMBH media using NBS plates, by OD(600)
Experiment [7] relates to HEK293. Description: cells. It is filed as functional. As to conditions: Homo sapiens, ATCC CRL1573, HEK293; ASSAY_TEST Inhibition of Cell Viability; detection method Resazurin; Fluorescence (ex560/em590); MEDIA DMEM with 10% FBS; plate type 384well; TC; CORNING #3712; time 18 hr.
Experiment [8] has as its system Pseudomonas aeruginosa. Description: microbe, parasite or virus in culture. As to conditions: ATCC 27853, 18 h, ASSAY_TEST Inhibition of Bacterial Growth, detection method Absorption (OD600), MEDIA CAMHB, plate type 384well, NBS, CORNING #3640.
Description: Antibacterial activity against Pseudomonas aeruginosa ATCC 27853 (CO-ADD:GN_042); MIC in CAMBH media using NBS plates, by OD(600)

≈ marks a conversion by molar mass, not a printed value.

On to `O=C(Nc1ccc(Nc2ccncc2)cc1)c1ccc(Nc2ccnc3ccc([N+](=O)[O-])cc23)cc1[N+](=O)[O-]`, for which the MIC in experiment [1], in experiment [2], in experiment [3], in experiment [4], in experiment [5] and in experiment [6] was greater than 10 µM in each case. In experiment [8], the MIC is greater than 10 µM. In experiment [7], this molecule yielded a CC50 greater than 10 µM.

With `O=C(/C=C/c1cccnc1)c1ccccc1O`, the MIC in experiment [1], in experiment [2], in experiment [3], in experiment [4], in experiment [5] and in experiment [6] was greater than 10 µM each time. Moreover, the MIC in experiment [8] is greater than 10 µM. This molecule also had a CC50 in experiment [7] greater than 10 µM.

As to `O=C1C=C(c2ccccc2)OC(=O)C1C(=O)c1ccccc1` (configuration not stated), the MIC in experiment [1], in experiment [2], in experiment [3], in experiment [4], in experiment [5] and in experiment [6] was greater than 10 µM throughout. In experiment [8], this molecule showed an MIC greater than 10 µM. This molecule also had a CC50 in experiment [7] greater than 10 µM.

On to `CCC(C)c1cnc(CC(C)C)c(=O)n1O` (configuration not stated), for which the MIC in experiment [1], in experiment [2], in experiment [3], in experiment [4], in experiment [5] and in experiment [6] was greater than 10 µM each time. Further, the MIC in experiment [8] was greater than 10 µM. In addition, the CC50 in experiment [7] is greater than 10 µM.

Take `Oc1c(/N=N/c2nnn[nH]2)ccc2ccccc12`: the MIC in experiment [1], in experiment [2], in experiment [3], in experiment [4], in experiment [5] and in experiment [6] was greater than 10 µM in each case. In experiment [8], the MIC was greater than 10 µM. In addition, the CC50 in experiment [7] was greater than 10 µM.

Regarding `CC1(C)CC(=O)CC(C)(C)N1O`, the MIC in experiment [1], in experiment [2], in experiment [3], in experiment [4], in experiment [5] and in experiment [6] was greater than 10 µM throughout. For the same molecule, the MIC in experiment [8] was greater than 10 µM. Besides, in experiment [7], the CC50 is greater than 10 µM.

Regarding `Cc1ccnc(NC(c2ccccc2)c2ccc3cccnc3c2O)c1` (configuration not stated), the MIC in experiment [1], in experiment [2], in experiment [3], in experiment [4], in experiment [5] and in experiment [6] was greater than 10 µM in each case. The molecule also showed an MIC in experiment [8] greater than 10 µM. Besides, the CC50 in experiment [7] is greater than 10 µM.

In the case of `C=C(C)C(=O)Oc1ccc(/N=N/c2ccc(C)cc2)ccc1=O`, the MIC in experiment [1] was greater than 10 µM; in experiment [2], greater than 10 µM; in experiment [3], 10 µM (≈ 3.08 µg/mL); in experiment [4] it was greater than 10 µM; in experiment [5], greater than 10 µM; in experiment [6], greater than 10 µM. The MIC in experiment [8] was greater than 10 µM. The same molecule returned a CC50 in experiment [7] greater than 10 µM.

As to `COC(=O)N1C2CCCCC2=NN(c2ccccc2)N1C(=O)OC` (configuration not stated), the MIC in experiment [1], in experiment [2], in experiment [3], in experiment [4], in experiment [5] and in experiment [6] was greater than 10 µM throughout. The molecule further had an MIC in experiment [8] greater than 10 µM. In experiment [7], this molecule yielded a CC50 greater than 10 µM.

As to `CCOC(=O)c1ccc(Nc2sc(C(=O)c3cccc([N+](=O)[O-])c3)c(N)c2C#N)cc1`, the MIC in experiment [1], in experiment [2], in experiment [3], in experiment [4], in experiment [5] and in experiment [6] was greater than 10 µM in each case. In experiment [8], this molecule returned an MIC greater than 10 µM. In experiment [7], this molecule came in with a CC50 greater than 10 µM.

Regarding `CN(C)CCOc1ccc2c(c1)C(=O)/C(=C\c1ncc([N+](=O)[O-])n1C)C2`, the MIC was 0.156 µM (≈ 0.0557 µg/mL) in experiment [1]; greater than 10 µM in experiment [2]; greater than 10 µM in experiment [3]; greater than 10 µM in experiment [4]; 5 µM (≈ 1.78 µg/mL) in experiment [5]; greater than 10 µM in experiment [6]. In experiment [8], the MIC was greater than 10 µM. This molecule returned a CC50 in experiment [7] of 1.55 µM.

Turning to `NC(=S)c1cn(C2OC(CO)C(O)C2O)c2ncnc(N)c12` (configuration not stated), the MIC in experiment [1] is greater than 10 µM; in experiment [2] it was greater than 10 µM; in experiment [3], 10 µM (≈ 3.25 µg/mL); in experiment [4], greater than 10 µM; in experiment [5] it was greater than 10 µM; in experiment [6], greater than 10 µM. Also, the MIC in experiment [8] was greater than 10 µM. This molecule also displayed a CC50 in experiment [7] of 0.521 µM.

Regarding `Cc1c2cc[n+](CCN3CCCCC3)cc2c(C)c2c1[nH]c1ccc(O)cc12`, the MIC in experiment [1] is greater than 10 µM; in experiment [2], 10 µM; in experiment [3], greater than 10 µM; in experiment [4], greater than 10 µM; in experiment [5] it was greater than 10 µM; in experiment [6], greater than 10 µM. The same molecule displayed an MIC in experiment [8] greater than 10 µM. Further, the CC50 in experiment [7] was greater than 10 µM.

On to `O=C(Nc1ccccc1)C1=C(Nc2ccccc2)CSC1`, for which the MIC in experiment [1], in experiment [2], in experiment [3], in experiment [4], in experiment [5] and in experiment [6] was greater than 10 µM in each case. In experiment [8], this molecule yielded an MIC greater than 10 µM. In experiment [7], this molecule returned a CC50 greater than 10 µM.

On to `Cc1ccc(C=C2C(Cl)=C(Cl)C(Cl)=C2Cl)cc1`, for which the MIC in experiment [1], in experiment [2], in experiment [3], in experiment [4], in experiment [5] and in experiment [6] was greater than 10 µM in each case. In experiment [8], the MIC was greater than 10 µM. The molecule also returned a CC50 in experiment [7] greater than 10 µM.

As for `Nc1nc(N)c2cc(Sc3ccc4ccccc4c3)ccc2n1`, the MIC in experiment [1] is 5 µM (≈ 1.59 µg/mL); in experiment [2], greater than 10 µM; in experiment [3] it was greater than 10 µM; in experiment [4], greater than 10 µM; in experiment [5] it was 0.156 µM (≈ 0.0498 µg/mL); in experiment [6] it was greater than 10 µM. For the same molecule, the MIC in experiment [8] was greater than 10 µM. In experiment [7], this molecule showed a CC50 of 4.64 µM.

For the molecule `Cc1cc(N)c2cc(NC(=O)/C=C\c3ccccc3Cl)ccc2n1`, the MIC in experiment [1] is greater than 10 µM; in experiment [2], 5 µM (≈ 1.69 µg/mL); in experiment [3], greater than 10 µM; in experiment [4], greater than 10 µM; in experiment [5], 10 µM (≈ 3.38 µg/mL); in experiment [6], greater than 10 µM. This molecule also gave an MIC in experiment [8] greater than 10 µM. Besides, in experiment [7], the CC50 stood at 2.78 µM.

As to `Cc1cnc(SCc2ccc(Cl)cc2Cl)nc1O`, the MIC in experiment [1], in experiment [2], in experiment [3], in experiment [4], in experiment [5] and in experiment [6] was greater than 10 µM each time. The molecule also registered an MIC in experiment [8] greater than 10 µM. This molecule registered a CC50 in experiment [7] greater than 10 µM.

Turning to `Oc1ccc2ccccc2c1/N=N/c1nccs1`, the MIC in experiment [1] is greater than 10 µM; in experiment [2], 2.5 µM (≈ 0.638 µg/mL); in experiment [3], 10 µM (≈ 2.55 µg/mL); in experiment [4], greater than 10 µM; in experiment [5] it was greater than 10 µM; in experiment [6] it was greater than 10 µM. The same molecule gave an MIC in experiment [8] greater than 10 µM. Besides, the CC50 in experiment [7] is greater than 10 µM.

`COC1CC2\C=C(C)/C=C/C=C/C(=O)NC(c3ccccc3)C/C=C/CCC(O)CC(=O)C2=C1O` (configuration not stated): the MIC in experiment [1] is greater than 10 µM; in experiment [2], 5 µM (≈ 2.39 µg/mL); in experiment [3], 1.25 µM (≈ 0.597 µg/mL); in experiment [4], greater than 10 µM; in experiment [5] it was 0.156 µM (≈ 0.0746 µg/mL); in experiment [6], greater than 10 µM. In addition, in experiment [8], the MIC was greater than 10 µM. The same molecule had a CC50 in experiment [7] of 2.08 µM.

As to `COC(=O)C1(F)C(=O)NC(=O)NC1OC` (configuration not stated), the MIC in experiment [1] was greater than 10 µM; in experiment [2], greater than 10 µM; in experiment [3], greater than 10 µM; in experiment [4], greater than 10 µM; in experiment [5], 5 µM (≈ 1.1 µg/mL); in experiment [6] it was greater than 10 µM. The MIC in experiment [8] is greater than 10 µM. This molecule also displayed a CC50 in experiment [7] greater than 10 µM.

As to `O=C1N=C(Nc2nc3ccccc3[nH]2)c2ccccc21`, the MIC in experiment [1] was greater than 10 µM; in experiment [2], greater than 10 µM; in experiment [3], 10 µM (≈ 2.62 µg/mL); in experiment [4] it was greater than 10 µM; in experiment [5], greater than 10 µM; in experiment [6], greater than 10 µM. Moreover, the MIC in experiment [8] was greater than 10 µM. In experiment [7], the CC50 is greater than 10 µM.

Regarding `C1C2CC3C1C3/C2=N\N=C1/C2CC3C(C2)C13`, the MIC in experiment [1], in experiment [2], in experiment [3], in experiment [4], in experiment [5] and in experiment [6] was greater than 10 µM in each case. In experiment [8], this molecule returned an MIC greater than 10 µM. In addition, the CC50 in experiment [7] was greater than 10 µM.

For `CN(C)c1n/c(=N/c2cccc(Cl)c2)ss1`, the MIC in experiment [1] was greater than 10 µM; in experiment [2], greater than 10 µM; in experiment [3], 10 µM (≈ 2.72 µg/mL); in experiment [4], greater than 10 µM; in experiment [5] it was greater than 10 µM; in experiment [6], greater than 10 µM. Besides, the MIC in experiment [8] was greater than 10 µM. The molecule also registered a CC50 in experiment [7] greater than 10 µM.
